Legend:
[1] = system: RPMI 1788 human healthy donor peripheral blood leukocytes; test: MTT cytotoxicity assay, normal RPMI 1788 cells; assay type: cell-based; details: tested at 1–200 µM, three independent experiments, read-out: IC50 RPMI 1788 (normal cell line)
[2] = system: HL-60 human promyelocytic leukemia cells; test: MTT cytotoxicity assay, HL-60; assay type: cell-based; details: for IC50: Homo sapiens, HL-60, MTT, tested at 1–200 µM, three independent experiments
[3] = system: HuTu 80 human duodenal adenocarcinoma cells; test: MTT cytotoxicity assay, HuTu 80; assay type: cell-based; details: for IC50: Homo sapiens, HuTu80, MTT, tested at 1–200 µM, three independent experiments; for SI (selectivity index) HuTu 80: HuTu 80 versus normal WI38 cells
lymphatic leukemia P388 = test: Antitumor activity, syngeneic lymphatic leukemia P388 in BDF1 mice; assay type: in vivo, mouse; details: for ILS / MST ± SD: i.p. days 1, 5, 9; for antileukemia / antitumor effect (in words): doses under study, i.p.
Procedure: At the next stage, we evaluated them in vivo using syngeneic mouse leukosis P388, which plays an important role in the screening of potential antitumor agents. The antitumor effect of the synthesized compounds was evaluated according to the increase in the average lifespan (ILS, %) of tumor-bearing animals. Due to the fact that physiologically relevant solvent, such as water or physiological solution [49], can be used as a solvent for parenteral administration of substances, we chose only water-soluble compounds 4o–r for the in vivo study.
As model tumors for the determination of antitumor activity of phosphorus-containing derivatives of pyrrolidine, the strain of lymphatic leukemia P388 was chosen. Lymphatic leukemia P388 was transplanted into hybrid mice of the BDF1 line intraperitoneally in accordance with the standard procedure. The inoculum contained 10^6 tumor cells in isotonic solution of NaCl. […] In each experiment, the control group was represented by the cohort of animals with tumors not treated with the compounds. Each group consisted of six mice. The animals were inspected daily over at least 60 days. The effectiveness of therapy was evaluated by the number of surviving animals, as well as by the increase in the average lifespan (ILS%), which was evaluated as the percentage of the mean survival time (MST) of the treated group (t) as compared to the control group (c): […].

[4] = system: M-HeLa human cervix carcinoma cells; test: MTT cytotoxicity assay, M-HeLa; assay type: cell-based; details: for IC50: Homo sapiens, M-HeLa, tested at 1–200 µM, three independent experiments; for SI (selectivity index) M-HeLa: M-HeLa versus normal WI38 cells
[5] = system: WI38 human fibroblast cell line; test: MTT cytotoxicity assay, normal WI38 cells; assay type: cell-based; details: WI-38, tested at 1–200 µM, three independent experiments
[6] = Acute in vivo toxicity, single intraperitoneal administration; details: mouse, ip, BDF1 mice, Behrens method, 14 d observation, read-out: half-lethal toxic dose (LD50)
Procedure: Firstly, acute in vivo toxicity was determined in order to calculate doses for the determination of the potential antileukemia activity. An acute toxicity study was carried out on the mice of the BDF1 line weighing from 20 to 24 g. In the experiment, clinically healthy animals were used, which were treated under the same conditions. To evaluate LD50, the toxicity gain curve was plotted against increasing doses (the Behrens method) (Figure 3).
Acute toxicity was evaluated using mice of the BDF1 line weighing from 20 to 24 g. In the experiment, clinically healthy animals treated under the same conditions were used. A total of 4–6 animals were used for each dose. All experiments on animals were carried out according to the Nursery and Vivarium, Russian Academy of Sciences Federal Research Center of Problems of Chemical Physics and Medicinal Chemistry (FRC PCPMC RAS) and in accordance with the rules established by the Commission on Bioethics of the FRC PCPMC RAS. One day after administration of the specimen, the animals were continuously treated for 4 h. Then, death of animals and clinical pattern of intoxication were evaluated once a day for 14 d. The test compounds were added intraperitoneally once. The individual volume of each animal was calculated from the mass of the body and dose of the test compound.
The lethal dose (LD100) for all animals and the maximum tolerable dose (MTD) values were also evaluated. Results of the studies are given in the form of tables and graphs.

[7] = dose 16 (table prints no unit; b71 mg/kg)
[8] = dose 22 (table prints no unit; b71 mg/kg)
[9] = dose 34 (table prints no unit; b71 mg/kg)
[10] = dose 48 (table prints no unit; b71 mg/kg)
[11] = dose 72 (table prints no unit; b71 mg/kg)
[12] = dose 12 (table prints no unit; b71 mg/kg)
[13] = dose 17 (table prints no unit; b71 mg/kg)
[14] = dose 27 (table prints no unit; b71 mg/kg)
[15] = dose 38 (table prints no unit; b71 mg/kg)
[16] = dose 57 (table prints no unit; b71 mg/kg)
[17] = dose 10 (table prints no unit; b71 mg/kg)
[18] = dose 15 (table prints no unit; b71 mg/kg)
[19] = dose 31 (table prints no unit; b71 mg/kg)
[20] = dose 47 (table prints no unit; b71 mg/kg)

SMILES | IC50 [1] | IC50 [2] | IC50 [3] | SI (selectivity index) HuTu 80 [3] | ILS (lymphatic leukemia P388; [8]) | MST ± SD (lymphatic leukemia P388; [8]) | antileukemia / antitumor effect (in words) (lymphatic leukemia P388) | IC50 ([4]; MTT) | SI (selectivity index) M-HeLa [4] | IC50 [5] | LD50 at 14 d [6] | further results
CCCCN(CCCC)CCS(=O)(=O)N1CCCC1P(=O)(c1ccccc1)c1ccccc1.Cl (stereo not drawn) [Compound 4p, N-Butyl-N-(2-((2-(diphenylphosphoryl)pyrrolidin-1-yl)sulfonyl)ethyl)butan-1-aminium chloride] | 176 ± 3.4 µM | 76.7 ± 6.1 µM | 94.4 ± 8.7 µM | - ((-)—no selectivity) | 80% | 18 ± 3.2 days | exhibited antileukemia activity | 57 ± 4.6 µM | 1.1 | 63.2 ± 5.7 µM | 165 ± 18.2 mg/kg | SI (selectivity index) HL-60 ([2]; HL-60 versus normal RPMI 1788 leukocytes): 2.3; ILS (lymphatic leukemia P388; [7]): 100%; MST ± SD (lymphatic leukemia P388; [7]): 20 ± 3.1 days; ILS (lymphatic leukemia P388; [9]): 75%; MST ± SD (lymphatic leukemia P388; [9]): 17.5 ± 2.7 days; ILS (lymphatic leukemia P388; [10]): 55%; MST ± SD (lymphatic leukemia P388; [10]): 15.5 ± 3.4 days; ILS (lymphatic leukemia P388; [11]): 42%; MST ± SD (lymphatic leukemia P388; [11]): 14.2 ± 2.4 days; cytotoxicity against M-HeLa (in words) ([4]; MTT): moderate cytotoxicity
Cl.O=P(c1ccccc1)(c1ccccc1)C1CCCN1S(=O)(=O)CCN1CCCC1 (stereo not drawn) [Compound 4q, 1-(2-((2-(Diphenylphosphoryl)pyrrolidin-1-yl)sulfonyl)ethyl)pyrrolidin-1-ium chloride] | > 100 µM | > 100 µM | > 100 µM | – | – | – | exhibited antileukemia activity | > 100 µM | – | > 100 µM | 215 ± 16.7 mg/kg | ILS (lymphatic leukemia P388; [12]): −9%; MST ± SD (lymphatic leukemia P388; [12]): 8.3 ± 0.6 days; ILS (lymphatic leukemia P388; [13]): 13%; MST ± SD (lymphatic leukemia P388; [13]): 10.3 ± 0.9 days; ILS (lymphatic leukemia P388; [14]): 33%; MST ± SD (lymphatic leukemia P388; [14]): 12.2 ± 1.7 days; ILS (lymphatic leukemia P388; [15]): 69%; MST ± SD (lymphatic leukemia P388; [15]): 15.5 ± 3.9 days; ILS (lymphatic leukemia P388; [16]): 11%; MST ± SD (lymphatic leukemia P388; [16]): 10.2 ± 0.2 days
Cl.O=P(c1ccccc1)(c1ccccc1)C1CCCN1S(=O)(=O)CCN1CCCCC1 (stereo not drawn) [Compound 4r, 1-(2-((2-(Diphenylphosphoryl)pyrrolidin-1-yl)sulfonyl)ethyl)piperidin-1-ium chloride] | > 100 µM | > 100 µM | 97.3 ± 8.2 µM | >1 | 4% | 11.2 ± 0.8 days | did not display antitumor effect | 96 ± 8.6 µM | >1 | > 100 µM | 170 ± 12.1 mg/kg | ILS (lymphatic leukemia P388; [17]): −9%; MST ± SD (lymphatic leukemia P388; [17]): 9.8 ± 0.2 days; ILS (lymphatic leukemia P388; [18]): −2%; MST ± SD (lymphatic leukemia P388; [18]): 10.5 ± 0.8 days; ILS (lymphatic leukemia P388; [19]): 0%; MST ± SD (lymphatic leukemia P388; [19]): 10.8 ± 0.7 days; ILS (lymphatic leukemia P388; [20]): −1%; MST ± SD (lymphatic leukemia P388; [20]): 10.7 ± 0.8 days
